Laboratory results published in patent publication US7741479B2, “Urea inhibitors of MAP kinases” (Locus Pharmaceuticals, Inc., priority 2004, dated 2010).

Target: T1, p38 (Homo sapiens, UniProt Q16539)
T1 construct: made in house
Assay: Protein Kinase Assay (33P incorporation from γ-[33P]ATP into GST-ATF-2 substrate)
Assay type: biochemical
Conditions: compound at 3 μM; read-out: Protein Kinase (% Inhibition at 3 μM)
Method: Human non-activated p38 kinase (MW=43 kDa) was purified according to the protocol described herein. Chemicals were purchased from Calbiochem. Fluorescence characterizations were conducted using a Cary Eclipse (Varian Analytical Instruments, Walnut Creek, Calif.). Research-grade CM5 sensor chips and coupling reagents (N-ethyl-N′-dimethylaminopropylcarbodiimide (EDC) N-hydroxysuccinimide (NHS), and 1 M ethanolamine HCl, pH 8.5) were purchased from Biacore AB (Uppsala, Sweden). The biosensor analyses were conducted using a Biacore 3000 SPR instrument. The kinetic analyses were carried on a Molecular Devices spectrophotometer (Molecular Devices Corporation, CA, USA).
Protein Kinase Assay. The protein kinase activity of p38 was determined by measuring the incorporation of ^33P from γ-[^33P]ATP into the GST-ATF-2 substrate, amino acids 19-96 (Upstate, NY USA). […] Compounds were preincubated with 10 nM p38 for 20 min at 30° C.; the reactions were initiated by the addition of GST-ATF2 and ATP and incubated for 70 min at 30° C. before being stopped by the addition of 10 μL of 600 mM phosphoric acid. The phosphorylated substrate was captured on phosphocellulose 96-well plate (Millipore MAPHNOB 10), washed with 100 mM phosphoric acid, and counted in a BeckmenCoulter LS6500 liquid scintillation counter.

T1 sequence (Q16539 whole entry): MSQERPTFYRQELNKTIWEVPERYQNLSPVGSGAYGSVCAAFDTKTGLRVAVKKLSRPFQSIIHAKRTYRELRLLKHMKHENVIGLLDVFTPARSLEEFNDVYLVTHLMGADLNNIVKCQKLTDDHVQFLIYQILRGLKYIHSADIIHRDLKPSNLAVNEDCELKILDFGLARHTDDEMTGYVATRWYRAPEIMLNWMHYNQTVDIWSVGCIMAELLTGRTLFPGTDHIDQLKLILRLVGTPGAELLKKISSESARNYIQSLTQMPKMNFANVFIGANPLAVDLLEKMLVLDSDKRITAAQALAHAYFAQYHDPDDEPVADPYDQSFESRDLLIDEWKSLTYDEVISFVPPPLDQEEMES

Structure (SMILES)	inhibition at 3 µM [%]
CC(C)(C)c1cc(NC(=O)Nc2cccc3ccccc23)c(C(=O)N2CCNS(=O)(=O)CC2)s1 [Example 51, 1-[5-tert-butyl-2-(1,1-dioxo-1λ^6-[1,2,5]thiadiazepane-5-carbonyl)thiophen-3-yl]-3-naphthalen-1-ylurea]	76 to 100
CC(C)(C)c1cc(NC(=O)Nc2cccc3ccccc23)c(C(=O)N2CCNC(=O)C2)s1 [Example 52, 1-[5-tert-butyl-2-(3-oxopiperazine-1-carbonyl)thiophen-3-yl]-3-naphthalen-1-ylurea]	76 to 100
CC(C)(C)c1cc(C(=O)N2CCNC(=O)CC2)c(NC(=O)Nc2cccc(Cl)c2Cl)s1 [Example 53, 1-[5-tert-butyl-3-(5-oxo-[1,4]diazepane-1-carbonyl)thiophen-2-yl]-3-(2,3-dichlorophenyl)urea]	76 to 100
CC(C)(C)c1cc(C(=O)N2CCNC(=O)CC2)c(NC(=O)Nc2cccc(Cl)c2)s1 [Example 54, 1-[5-tert-butyl-3-(5-oxo-[1,4]diazepane-1-carbonyl)thiophen-2-yl]-3-(3-chlorophenyl)urea]	76 to 100
CC(C)(C)c1cc(C(=O)N2CCNC(=O)CC2)c(NC(=O)Nc2ccc(C#N)c3ccccc23)s1 [Example 55, 1-[5-tert-butyl-3-(5-oxo-[1,4]diazepane-1-carbonyl)thiophen-2-yl]-3-(4-cyanonaphthyl)urea]	76 to 100
CC(C)(C)c1cc(C(=O)N2CCNS(=O)(=O)CC2)c(NC(=O)Nc2ccc(C#N)c3ccccc23)s1 [Example 56, 1-[5-tert-butyl-3-(1,1-dioxo-1λ^6-[1,2,5]thiadiazepane-5-carbonyl)thiophen-2-yl]-3-(4-cyanonaphthalen-1-yl)urea]	76 to 100
CC(C)(C)c1cc(C(=O)N2CCNC(=O)C2)c(NC(=O)Nc2ccc(C#N)c3ccccc23)s1 [Example 57, 1-[5-tert-butyl-3-(3-oxopiperazine-1-carbonyl)thiophen-2-yl]-3-(4-cyano-naphthalen-1-yl)urea]	76 to 100
CC(C)(C)c1cc(C(=O)N2CCS(=O)(=O)CC2)c(NC(=O)Nc2cccc(Cl)c2Cl)s1 [Example 58, 1-[5-tert-butyl-3-(1,1-dioxo-1λ^6-thiomorpholine-4-carbonyl)thiophen-2-yl]-3-(2,3-dichlorophenyl)urea]	76 to 100
CC(C)(C)c1cc(C(=O)N2CCS(=O)(=O)CC2)c(NC(=O)Nc2cccc(Cl)c2)s1 [Example 59, 1-[5-tert-butyl-3-(1,1-dioxo-1λ^6-thiomorpholine-4-carbonyl)thiophen-2-yl]-3-(3-chlorophenyl)urea]	76 to 100
CC(C)(C)c1cc(C(=O)N2CCS(=O)(=O)CC2)c(NC(=O)Nc2ccc3c(c2)OCO3)s1 [Example 60, 1-Benzo[1,3]dioxol-5-yl-3-[5-tert-butyl-3-(1,1-dioxo-1λ^6-thiomorpholine-4-carbonyl)thiophen-2-yl]urea]	76 to 100
CC(C)(C)c1cc(C(=O)N2CCS(=O)(=O)CC2)c(NC(=O)Nc2ccc3c(c2)OC(F)(F)O3)s1 [Example 61, 1-[5-tert-butyl-3-(1,1-dioxo-1λ^6-thiomorpholine-4-carbonyl)thiophen-2-yl]-3-(2,2-difluorobenzo[1,3]dioxol-5-yl)urea]	76 to 100
COc1ccc(NC(=O)Nc2sc(C(C)(C)C)cc2C(=O)N2CCS(=O)(=O)CC2)cc1Cl [Example 62, 1-[5-tert-butyl-3-(1,1-dioxo-1λ^6-thiomorpholine-4-carbonyl)thiophen-2-yl]-3-(3-chloro-4-methoxyphenyl)urea]	76 to 100
CC(C)(C)c1cc(C(=O)N2CCS(=O)(=O)CC2)c(NC(=O)Nc2ccc(Cl)c(Cl)c2)s1 [Example 63, 1-[5-tert-butyl-3-(1,1-dioxo-1λ^6-thiomorpholine-4-carbonyl)thiophen-2-yl]-3-(3,4-dichlorophenyl)urea]	76 to 100
CC(C)(C)c1cc(C(=O)N2CCS(=O)(=O)CC2)c(NC(=O)Nc2ccc(C#N)c(Cl)c2)s1 [Example 64, 1-[5-tert-butyl-3-(1,1-dioxo-1λ^6-thiomorpholine-4-carbonyl)thiophen-2-yl]-3-(3-chloro-4-cyanophenyl)urea]	51 to 75
CC(C)(C)c1cc(C(=O)N2CCS(=O)(=O)CC2)c(NC(=O)Nc2ccc(C#N)c(C(F)(F)F)c2)s1 [Example 65, 1-[5-tert-butyl-3-(1,1-dioxo-1λ^6-thiomorpholine-4-carbonyl)thiophen-2-yl]-3-(4-cyano-3-trifluoromethylphenyl)urea]	26 to 50
CC(C)(C)c1cc(C(=O)N2CCS(=O)(=O)CC2)c(NC(=O)NC(C)(C)c2ccccc2)s1 [Example 66, 1-[5-tert-butyl-3-(1,1-dioxo-1λ^6-thiomorpholine-4-carbonyl)thiophen-2-yl]-3-(1-methyl-1-phenylethyl)urea]	0 to 25

Structure (SMILES)	inhibition at 3 µM [%]
Cc1cccc(NC(=O)Nc2sc(C(C)(C)C)cc2C(=O)N2CCS(=O)(=O)CC2)c1 [Example 67, 1-[5-tert-butyl-3-(1,1-dioxo-1λ^6-thiomorpholine-4-carbonyl)thiophen-2-yl]-3-(3-tolyl)urea]	76 to 100
CC(C)(C)c1cc(C(=O)N2CCS(=O)(=O)CC2)c(NC(=O)Nc2cc(Cl)cc(Cl)c2)s1 [Example 68, 1-[5-tert-butyl-3-(1,1-dioxo-1λ^6-thiomorpholine-4-carbonyl)thiophen-2-yl]-3-(3,5-dichlorophenyl)urea]	76 to 100
Cn1ccc(NC(=O)Nc2sc(C(C)(C)C)cc2C(=O)N2CCS(=O)(=O)CC2)n1 [Example 69, 1-[5-tert-butyl-3-(1,1-dioxo-1λ^6-thiomorpholine-4-carbonyl)thiophen-2-yl]-3-(1-methyl-1H-pyrazol-3-yl)urea]	0 to 25
Cc1cc(NC(=O)Nc2sc(C(C)(C)C)cc2C(=O)N2CCS(=O)(=O)CC2)cc(C)n1 [Example 70, 1-[5-tert-butyl-3-(1,1-dioxo-1λ^6-thiomorpholine-4-carbonyl)thiophen-2-yl]-3-(2,6-dimethylpyridin-4-yl)urea]	26 to 50
CC(C)(C)c1cc(C(=O)N2CCS(=O)(=O)CC2)c(NC(=O)Nc2ccc3ocnc3c2)s1 [Example 71, 1-Benzoxazol-5-yl-3-[5-tert-butyl-3-(1,1-dioxo-1λ^6-thiomorpholine-4-carbonyl)thiophen-2-yl]urea]	76 to 100
CC(C)(C)c1cc(C(=O)N2CCS(=O)(=O)CC2)c(NC(=O)Nc2ccc3ncoc3c2)s1 [Example 72, 1-Benzoxazol-6-yl-3-[5-tert-butyl-3-(1,1-dioxo-1λ^6-thiomorpholine-4-carbonyl)thiophen-2-yl]urea]	76 to 100
CC(C)(C)c1cc(C(=O)N2CCNC(=O)CC2)c(NC(=O)Nc2ccc3c(c2)OCO3)s1 [Example 73, 1-Benzo[1,3]dioxol-5-yl-3-[5-tert-butyl-3-(5-oxo-[1,4]diazepane-1-carbonyl)-thiophen-2-yl]urea]	76 to 100
CC(C)(C)c1cc(C(=O)N2CCNC(=O)CC2)c(NC(=O)Nc2ccc3c(c2)OC(F)(F)O3)s1 [Example 74, 1-[5-tert-butyl-3-(5-oxo-[1,4]diazepane-1-carbonyl)-thiophen-2-yl]-3-(2,2-difluoro-benzo[1,3]dioxol-5-yl)urea]	76 to 100
CC(C)(C)c1cc(C(=O)Nc2cccnc2)c(NC(=O)Nc2ccc(Cl)cc2)s1 [Example 75, 1-(3-(Pyridin-3-ylcarbamoyl)-5-tert-butylthiophen-2-yl)-3-(4-chlorophenyl)urea]	76 to 100
CC(C)(C)c1cc(C(=O)N2CCS(=O)(=O)CC2)c(NC(=O)Nc2ccc(C#N)cc2Cl)s1 [Example 76, 1-[5-tert-butyl-3-(1,1-dioxo-1λ^6-thiomorpholine-4-carbonyl)thiophen-2-yl]-3-(2-chloro-4-cyanophenyl)urea]	76 to 100
CC(C)(C)c1cc(C(=O)N2CCS(=O)(=O)CC2)c(NC(=O)NC2(c3ccccc3)CC2)s1 [Example 77, 1-[5-tert-butyl-3-(1,1-dioxo-1λ^6-thiomorpholine-4-carbonyl)thiophen-2-yl]-3-(1-phenylcyclopropyl)urea]	26 to 50
CC1C(=O)NCCN1C(=O)c1cc(C(C)(C)C)sc1NC(=O)Nc1ccc(Cl)cc1 (stereo not shown) [Example 78, 1-[5-tert-butyl-3-(2-methyl-3-oxopiperazine-1-carbonyl)thiophen-2-yl]-3-(4-chlorophenyl)urea]	76 to 100
CC(C)(C)c1nc(C(=O)N2CCNS(=O)(=O)CC2)c(NC(=O)Nc2cccc3ccccc23)s1 [Example 80, 1-[2-tert-butyl-4-(1,1-dioxo-1λ^6-[1,2,5]thiadiazepane-5-carbonyl)thiazol-5-yl]-3-naphthalen-1-ylurea]	76 to 100
CN(CCS(C)(=O)=O)C(=O)c1cc(C(C)(C)C)sc1NC(=O)Nc1cccc2ccccc12 [Example 82, 1-(3-(N-methyl-N-(2-(methylsulfonyl)ethyl)carbamoyl)-5-tert-butylthiophen-2-yl)-3-(naphthalen-1-yl)urea]	76 to 100
CC(C)(C)c1nc(C(=O)N2CCNC(=O)C2)c(NC(=O)Nc2cccc3ccccc23)s1 [Example 83, 1-[2-tert-butyl-4-(3-oxopiperazine-1-carbonyl)thiazol-5-yl]-3-naphthalen-1-ylurea]	76 to 100
